# Columns and labels:
# NMRI-Mäusen = experiment: Sedative effect: inhibition of novelty-induced orientation hypermotility (photoelectric measurement); assay type: in vivo; conditions: for ED50: Mus musculus, 0.5 h, oral, female NMRI mice, measured 30 min after dosing for 30 min, dose giving 50 % decrease of orientation hypermotility, read-out: Sedation ED50; for Sedation R.W.: relative Wirksamkeit = ED50 Vergleichssubstanz / ED50 Beispiel, Clozapin = 1,0
# Method: 4 bis 8 Gruppen von Jeweils 3 weiblichen NMRI-Mäusen erhalten die Substanzen oral appliziert. Die photoelektrische Bestimmung der durch eine neue Umgebung induzierten Orientierungshypermotilität erfolgt 30 min nach der Applikation der Substanzen für eine Dauer von 30 min. " Als ED50 wird die Dosis bestimmt, welche im Ver- gleich zu Placebo-behandelten Kontrolltieren eine Abnahme der Orientierungshypermotilität um 50 % bewirkt.
# Kaninchens = experiment: Muscle-relaxant effect: tonic stretch reflex of the gastrocnemius; assay type: in vivo, Kaninchen; conditions: for ED50: Oryctolagus cuniculus, rabbit, intravenous, tonic stretch reflex impulse counts relative to pre-dose values, read-out: Muskelrelaxation ED50; for Muskelrelaxation R.W.: relative Wirksamkeit = ED50 Vergleichssubstanz / ED50 Beispiel, Clozapin = 1,0
# Description: 2. […] auf der Quantifizierung des tonischen Dehnungsreflexes am Gastocnemius des […] et al., Arch. Pharmacol. exp. Path. 266, 462, 1970). Das Kaninchen wird in einer speziellen Apparatur fixiert, die es erlaubt, die Pfote im Sprunggelenk in […] und reproduzierbarer Weise zu beugen. Durch die Beugung wird in der Wadenmuskulatur ein tonischer Dehnungsreflex ausgelöst. Die […] des Muskels während der Kontraktion wird registriert und die Einzelimpulse gezählt. Die Dehnung (Dauer 5 s) wird in Minutenabständen wiederholt. Nach Erreichen einer konstanten Impulszahl (Kontrollwert) wird die Testsubstanz intravenös appliziert. Die Impulszahlen nach Applikation werden auf die Vorwerte bezogen.
# Ratten [1] = experiment: Antimethamphetamine effect: suppression of methamphetamine-induced sniffing; assay type: in vivo; conditions: for ED50: ip, 0.5 h, rat, intraperitoneal 30 min before Methamphetamin . HCl 2,5 mg/kg i.v., absence of sniffing within 5 min, probit analysis, read-out: Methamphetaminantagonismus ED50; for Methamphetaminantagonismus R.W.: relative Wirksamkeit = ED50 Vergleichssubstanz / ED50 Beispiel, Clozapin = 1,0
# Method: Antimethamphetamin-Wirkung
# Methamphetamin . […] Die Prüfsubstanzen werden 30 min vor Methamphetamin intraperitoneal verabfolgt. Kriterium für einen Substanzeffekt ist das Ausbleiben der Schnüffelbewegungen innerhalb eines 5-minütigen Beobachtungszeitraumes nach Meth- amphetamin-Injektion. Als mittlere Hemmdosis (ED50) ' wird mittels Probitanalyse die Dosis ermittelt, die das Symptom bei der Hälfte der Tiere verhindert.
# Ratten [2] = experiment: Central anticholinergic effect: suppression of pilocarpine-induced scratching; assay type: in vivo; conditions: for ED50: ip, 0.5 h, rat, intraperitoneal 30 min before Pilocarpin . HCl 50 mg/kg i.v., absence of scratching within 2 min, probit analysis, read-out: Zentral-anticholinerge Wirkung ED50; for Zentral-anticholinerge Wirkung R.W.: relative Wirksamkeit = ED50 Vergleichssubstanz / ED50 Beispiel, Clozapin = 1,0
# Method: 4. Zentral-anticholinerge Wirkung
# Zur Prüfung auf zentrale anticholinerge Wirkung wird durch Pilocarpin eine cholinerge Stimulierung ausgelöst. Ratten zeigen nach rascher intravenöser Injektion von Pilocarpin . HC1 (50 mg/kg) alternierende Kratzbewegungen der Hinterpfoten; weitere zentral ausgelöste Symptome sind Kieferbewegungen und Tremor. ALs Zeichen peripherer übererregung können Speichelfluß und Chromodakryorrhoe beobachtet werden (Kreiskott, Arch. exp. Path. Pharmak. 247, 317, 1964). Die Prüfsubstanzen werden 30 min vor Pilocarpin intraperitoneal verabfolgt. Kriterium für einen Substanzeffekt ist das Ausbleiben des Kratzens innerhalb 2 min nach Pilocarpin-Injektion. Für dieses Symptom wird als mittlere Hemmdosis (ED50) mittels Probitanalyse nach Finney diejenige Dosis der Prüfsubstanz ermittelt, welche die Kratzabläufe bei der Hälfte der Tiere unterdrückt.
SMILES,ED50 (NMRI-Mäusen) [mg/kg],Sedation R.W. (NMRI-Mäusen),ED50 (Kaninchens) [mg/kg],Muskelrelaxation R.W. (Kaninchens),ED50 (Ratten [1]) [mg/kg],Methamphetaminantagonismus R.W. (Ratten [1]),ED50 (Ratten [2]) [mg/kg],Zentral-anticholinerge Wirkung R.W. (Ratten [2])
"CN1CCN(C2=Nc3c(csc3Cl)C(=CC#N)c3cscc32)CC1 (mixture of isomers) [Beispiel 2, cis, trans-3-Chlor-9-cyanmethyl en-5-(4-methylpiperazin-1--yl)-dithieno[3.4-b:4'.3'-e]azepin]",9.6,"0,49",0.08,"0,56",–,–,–,–
"CCN1CCN(C2=Nc3cscc3C(=CC#N)c3cscc32)CC1 (mixture of isomers) [Beispiel 6, cis, trans-9-Cyanmethylen-5-(4-äthyl-piperazin-1-yl)-di-thieno[3.4-b:4'.3'-elazepin]",10.6,"0,44",0.22,"0,21",42,"0,88",–,–
CN1CCN(C2=Nc3cscc3/C(=C/C#N)c3cscc32)CC1 [1b cis],5,"0,94",0.22,"0,21",5.5,"6,72",0.6,"5,2"
CN1CCN(C2=Nc3cscc3/C(=C\C#N)c3cscc32)CC1 [1b trans],> 21.5,"<0,22",> 1,"<0,046",77,"0,48",13,"0,24"
"CN1CCN(C2=Nc3cscc3C(=CC#N)c3cscc32)CC1 [Beispiel 1a, 9-Cyanmethylen-5-(4-methyl-piperazin-1-yl)-dithieno-[3.4-b:4'.3'-e]azepin]",7.4,"0,64",0.14,"0,33",5.1,"7,25",2.8,"1,1"
"CN1CCN(C2=Nc3cc(Cl)ccc3Nc3ccccc32)CC1 [Clozapin, reference compound]",4.7,"1,0",–,"1,0",37,"1,0",3.1,"1,0"
"CN1CCN(C2=Nc3ccccc3Cc3ccccc32)CC1 [Perlapin, reference compound]",2.1,"2,24",0.11,"0,42",31,"1,2",14,"0,22"

# Reference: EP0050212A1, “5-Substituted-9-cyane-methylene-dithieno(3,4-b:4',3'-e) azepines, process for their preparation and pharmaceutical compositions containing them” (BASF Aktiengesellschaft, priority 1980, dated 1982)
